Measured values as given in ChEMBL document CHEMBL1201862, “PubChem BioAssay data set” (2004).
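A five-concentration, 48-hour dose response in 96-well plates underlies each endpoint, interpolated linearly between surrounding concentrations. The concentration for 50% growth inhibition is given as GI50.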 The source made the active and inactive calls. No stated cut-off is given here; in the data, active = GI50 up to about 1.1 µM and inactive = higher.

Tests used:
Experiment in all cases: NCI tumour cell line growth inhibition, 48 h
K562 = test system: K562
DU-145 = test system: DU-145
HL-60 = test system: HL-60
RPMI-8226 = test system: RPMI-8226
IGROV-1 = test system: IGROV-1
CAKI-1 = test system: CAKI-1
MOLT-4 = test system: MOLT-4
NCI-H522 = test system: NCI-H522
OVCAR-3 = test system: OVCAR-3
SNB-19 = test system: SNB-19
KM12 = test system: KM12
SK-MEL-28 = test system: SK-MEL-28
ACHN = test system: ACHN
UACC-257 = test system: UACC-257
MDA-N = test system: MDA-N
SNB-75 = test system: SNB-75
SR = test system: SR
SF-295 = test system: SF-295
Malme-3M = test system: Malme-3M
SF-268 = test system: SF-268

Row | SMILES | GI50 (K562) | GI50 (DU-145) | GI50 (HL-60) | GI50 (RPMI-8226) | GI50 (IGROV-1) | GI50 (CAKI-1) | GI50 (MOLT-4) | GI50 (NCI-H522) | GI50 (OVCAR-3) | GI50 (SNB-19) | GI50 (KM12) | GI50 (SK-MEL-28) | GI50 (ACHN) | GI50 (UACC-257) | GI50 (MDA-N) | GI50 (SNB-75) | GI50 (SR) | GI50 (SF-295) | GI50 (Malme-3M) | GI50 (SF-268)
1 | COc1ccc(S(=O)(=O)NC(CCC(=O)NC(N)=O)C(=O)NC(N)=O)cc1 (stereo unspecified) | > 100 µM (inactive) | > 100 µM (inactive) | 74.5 µM (inactive) | > 100 µM (inactive) | > 100 µM (inactive) | > 100 µM (inactive) | > 100 µM (inactive) | > 100 µM (inactive) | > 100 µM (inactive) | > 100 µM (inactive) | > 100 µM (inactive) | > 100 µM (inactive) | > 100 µM (inactive) | > 100 µM (inactive) | > 100 µM (inactive) | > 100 µM (inactive) | > 100 µM (inactive) | > 100 µM (inactive) | > 100 µM (inactive) | –
2 | O=C1C(=O)N(c2cccc(C(F)(F)F)c2)C(=S)N1c1ccccc1 | 34.5 µM (inactive) | 22.2 µM (inactive) | 32.7 µM (inactive) | 36.2 µM (inactive) | 22.4 µM (inactive) | 29.2 µM (inactive) | 38 µM (inactive) | 6.44 µM (inactive) | – | 40.5 µM (inactive) | 31.4 µM (inactive) | 28 µM (inactive) | 16.4 µM (inactive) | 25.8 µM (inactive) | 25.5 µM (inactive) | 34.5 µM (inactive) | 37.2 µM (inactive) | 31.5 µM (inactive) | 31.8 µM (inactive) | 43.9 µM (inactive)
3 | Cc1cnc2sn(-c3ccc(Br)cc3)c(=O)c2c1 | – | 50.5 µM (inactive) | 18.3 µM (inactive) | 33.2 µM (inactive) | 53.6 µM (inactive) | 16.7 µM (inactive) | 30.4 µM (inactive) | 2.37 µM (inactive) | 22.2 µM (inactive) | 40.9 µM (inactive) | 74.8 µM (inactive) | 27.7 µM (inactive) | 35.6 µM (inactive) | 45.2 µM (inactive) | > 100 µM (inactive) | 84.9 µM (inactive) | 40.7 µM (inactive) | 26.5 µM (inactive) | 15.1 µM (inactive) | 38.7 µM (inactive)
4 | O=C1C(=Cc2ccco2)C(=O)C2CCCCC12 (stereo unspecified) | 17.6 µM (inactive) | > 100 µM (inactive) | – | > 100 µM (inactive) | > 100 µM (inactive) | > 100 µM (inactive) | > 100 µM (inactive) | > 100 µM (inactive) | > 100 µM (inactive) | > 100 µM (inactive) | > 100 µM (inactive) | > 100 µM (inactive) | > 100 µM (inactive) | > 100 µM (inactive) | > 100 µM (inactive) | > 100 µM (inactive) | > 100 µM (inactive) | > 100 µM (inactive) | > 100 µM (inactive) | > 100 µM (inactive)
5 | C[C@]12CC[C@@H]3c4ccc(O)cc4CC[C@H]3[C@@H]1C/C(=C\c1ccc(C#N)cc1)C2=O | > 100 µM (inactive) | 57.4 µM (inactive) | – | 13.3 µM (inactive) | 46.1 µM (inactive) | 82.8 µM (inactive) | 23.5 µM (inactive) | 17.4 µM (inactive) | 21.9 µM (inactive) | 52.4 µM (inactive) | 23.1 µM (inactive) | 36.2 µM (inactive) | 64 µM (inactive) | 30.8 µM (inactive) | 25 µM (inactive) | 94 µM (inactive) | 50 µM (inactive) | 71.6 µM (inactive) | 28.3 µM (inactive) | 61 µM (inactive)
6 | CCCC(=O)OC1C(C(O)CO)OC2OC(C)(C)OC21 (stereo unspecified) | – | > 100 µM (inactive) | – | > 100 µM (inactive) | > 100 µM (inactive) | > 100 µM (inactive) | > 100 µM (inactive) | > 100 µM (inactive) | > 100 µM (inactive) | > 100 µM (inactive) | > 100 µM (inactive) | > 100 µM (inactive) | > 100 µM (inactive) | > 100 µM (inactive) | > 100 µM (inactive) | > 100 µM (inactive) | > 100 µM (inactive) | > 100 µM (inactive) | > 100 µM (inactive) | > 100 µM (inactive)
7 | CCSc1nnc2c(-c3ccccc3)n[nH]c2n1 | > 100 µM (inactive) | > 100 µM (inactive) | > 100 µM (inactive) | > 100 µM (inactive) | > 100 µM (inactive) | > 100 µM (inactive) | > 100 µM (inactive) | > 100 µM (inactive) | > 100 µM (inactive) | > 100 µM (inactive) | > 100 µM (inactive) | > 100 µM (inactive) | > 100 µM (inactive) | > 100 µM (inactive) | > 100 µM (inactive) | 27.2 µM (inactive) | > 100 µM (inactive) | 31 µM (inactive) | – | 49.1 µM (inactive)
8 | CC(C(=O)N1C(=O)N(C(=O)C(C)C(O)c2ccccc2)C(c2ccccc2)C1c1ccccc1)C(O)c1ccccc1 (stereo unspecified) | 4.47 µM (inactive) | 21.3 µM (inactive) | 2.27 µM (inactive) | 4.01 µM (inactive) | 12.7 µM (inactive) | – | 3.66 µM (inactive) | 7.19 µM (inactive) | 5.94 µM (inactive) | 5.52 µM (inactive) | 3.34 µM (inactive) | 15.8 µM (inactive) | 6.7 µM (inactive) | – | > 10 µM (inactive) | 3.9 µM (inactive) | 3.61 µM (inactive) | 2.84 µM (inactive) | 12.2 µM (inactive) | 13.4 µM (inactive)
9 | C=CCOCn1ccc(N)nc1=O | > 100 µM (inactive) | > 100 µM (inactive) | > 100 µM (inactive) | > 100 µM (inactive) | > 100 µM (inactive) | > 100 µM (inactive) | > 100 µM (inactive) | > 100 µM (inactive) | – | > 100 µM (inactive) | > 100 µM (inactive) | > 100 µM (inactive) | – | > 100 µM (inactive) | > 100 µM (inactive) | > 100 µM (inactive) | > 100 µM (inactive) | > 100 µM (inactive) | > 100 µM (inactive) | > 100 µM (inactive)
10 | COC(=O)/C=c1/c2ccccc2n2nc3ccccc3c12 | 51.4 µM (inactive) | > 100 µM (inactive) | 45 µM (inactive) | 18.4 µM (inactive) | > 100 µM (inactive) | 63 µM (inactive) | 6.01 µM (inactive) | 29 µM (inactive) | > 100 µM (inactive) | 82.4 µM (inactive) | 27.5 µM (inactive) | > 100 µM (inactive) | > 100 µM (inactive) | 80.9 µM (inactive) | 30.8 µM (inactive) | – | 4.03 µM (inactive) | > 100 µM (inactive) | 99.1 µM (inactive) | 49.9 µM (inactive)
11 | O=c1c2cc(I)ccc2nc(Sc2ncccc2[N+](=O)[O-])n1Cc1ccccc1 | 38.5 µM (inactive) | 22.5 µM (inactive) | 0.122 µM (active) | 19.1 µM (inactive) | 13.7 µM (inactive) | 25.8 µM (inactive) | 23.2 µM (inactive) | 13.2 µM (inactive) | 22 µM (inactive) | 45.9 µM (inactive) | 27.4 µM (inactive) | > 100 µM (inactive) | 39.1 µM (inactive) | 23.2 µM (inactive) | 20.4 µM (inactive) | 7.08 µM (inactive) | 7.08 µM (inactive) | 60 µM (inactive) | – | 22.1 µM (inactive)
12 | COc1cc(/C=C2/Oc3c(OC)cccc3C2=O)ccc1O | > 100 µM (inactive) | 49.1 µM (inactive) | 36.6 µM (inactive) | 53.2 µM (inactive) | 64.6 µM (inactive) | 36.5 µM (inactive) | 50.4 µM (inactive) | 24.7 µM (inactive) | 61.2 µM (inactive) | 91 µM (inactive) | 88.5 µM (inactive) | > 100 µM (inactive) | 63.7 µM (inactive) | > 100 µM (inactive) | > 100 µM (inactive) | 41.8 µM (inactive) | 29.9 µM (inactive) | 54 µM (inactive) | – | > 100 µM (inactive)
13 | C=C[C@]1(C)CC(=O)C(C(C)C=O)[C@]12C(=O)Oc1cccc(C)c1C2=O (stereo partly specified) | 12.9 µM (inactive) | 16.8 µM (inactive) | 4 µM (inactive) | 8.22 µM (inactive) | – | 14.4 µM (inactive) | 23.9 µM (inactive) | 3.72 µM (inactive) | 15.9 µM (inactive) | 12.2 µM (inactive) | 14.7 µM (inactive) | 15.2 µM (inactive) | 15.6 µM (inactive) | 17.6 µM (inactive) | 14.5 µM (inactive) | 16.4 µM (inactive) | 27 µM (inactive) | 15.5 µM (inactive) | 18 µM (inactive) | 24.1 µM (inactive)
14 | Nc1nc2c(C(=O)O)c3ccc([N+](=O)[O-])cc3c(=O)n2c2ccccc12 | 19.5 µM (inactive) | 16.5 µM (inactive) | 32.1 µM (inactive) | 27.5 µM (inactive) | 26.9 µM (inactive) | 34.4 µM (inactive) | 14.4 µM (inactive) | 19.9 µM (inactive) | 21.1 µM (inactive) | 28.5 µM (inactive) | 25.8 µM (inactive) | 52.8 µM (inactive) | 33.1 µM (inactive) | – | 22.8 µM (inactive) | 3.44 µM (inactive) | 24.3 µM (inactive) | 29.1 µM (inactive) | 40 µM (inactive) | 33.8 µM (inactive)
15 | O=C(CCc1cc(O)cc(O)c1)NCCCNC(=O)CCc1cc(O)cc(O)c1 | > 100 µM (inactive) | > 100 µM (inactive) | – | > 100 µM (inactive) | > 100 µM (inactive) | > 100 µM (inactive) | > 100 µM (inactive) | > 100 µM (inactive) | > 100 µM (inactive) | > 100 µM (inactive) | > 100 µM (inactive) | > 100 µM (inactive) | > 100 µM (inactive) | > 100 µM (inactive) | > 100 µM (inactive) | – | > 100 µM (inactive) | > 100 µM (inactive) | > 100 µM (inactive) | > 100 µM (inactive)
